The target in data set [1] is Tissue-type plasminogen activator (Homo sapiens, UniProt P00750). In words: Binding affinity to human tPA.
Data set [2] deals with T1, Coagulation factor X (Oryctolagus cuniculus, UniProt O19045).
T1 sequence (O19045 whole entry): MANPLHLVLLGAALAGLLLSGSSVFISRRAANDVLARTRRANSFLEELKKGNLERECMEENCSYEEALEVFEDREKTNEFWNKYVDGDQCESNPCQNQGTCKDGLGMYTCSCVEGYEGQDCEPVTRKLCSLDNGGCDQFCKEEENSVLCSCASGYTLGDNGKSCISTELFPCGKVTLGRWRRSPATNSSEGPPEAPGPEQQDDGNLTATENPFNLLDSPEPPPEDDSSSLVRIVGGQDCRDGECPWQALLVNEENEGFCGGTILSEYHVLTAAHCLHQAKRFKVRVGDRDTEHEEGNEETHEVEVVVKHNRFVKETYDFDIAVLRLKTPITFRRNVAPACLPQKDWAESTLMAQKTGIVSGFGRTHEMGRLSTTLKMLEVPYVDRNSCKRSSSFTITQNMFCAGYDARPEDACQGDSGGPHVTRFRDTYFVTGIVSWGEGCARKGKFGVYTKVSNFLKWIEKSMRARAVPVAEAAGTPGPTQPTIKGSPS
The data set is described as follows: Binding affinity to rabbit f10a.

For data set [3], the target named is T2, Coagulation factor X (Homo sapiens, UniProt P00742). In words: Binding affinity to human f10a.
T2 sequence (P00742 41-179 limits assumed): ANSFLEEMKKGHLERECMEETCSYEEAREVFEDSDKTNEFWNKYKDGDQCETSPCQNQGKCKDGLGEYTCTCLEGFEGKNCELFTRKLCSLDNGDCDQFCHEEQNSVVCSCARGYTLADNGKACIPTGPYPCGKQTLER
T2 sequence (P00742 235-488 limits assumed): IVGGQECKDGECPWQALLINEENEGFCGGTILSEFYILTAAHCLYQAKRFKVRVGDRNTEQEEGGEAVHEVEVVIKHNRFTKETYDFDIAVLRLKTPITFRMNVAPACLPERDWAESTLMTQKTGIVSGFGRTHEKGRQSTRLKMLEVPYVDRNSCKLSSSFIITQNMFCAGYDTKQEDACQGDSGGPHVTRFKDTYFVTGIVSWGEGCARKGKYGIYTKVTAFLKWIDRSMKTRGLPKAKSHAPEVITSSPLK
Data set [4] is described as follows: Protein binding in rabbit plasma. The data set is classed as ADME, organism-based, Oryctolagus cuniculus. As to conditions: read-out: PPB (converted).
The target in another data set is Prothrombin (Homo sapiens, UniProt P00734). In words: Binding affinity to human thrombin.
The subject of another data set is Oryctolagus cuniculus. In words: Inhibition of thrombus formation in iv dosed rabbit arterio-venous shunt model. The data set is classed as functional, organism-based.
A further data set has as its target Coagulation factor IX (Homo sapiens, UniProt P00740). The data set is described as follows: Binding affinity to human f9a.
Data set [5] has as its target Vitamin K-dependent protein C (Homo sapiens, UniProt P04070). The data set is described as follows: Binding affinity to human activated protein C.
For the next data set, the target named is Trypsin (Homo sapiens, UniProt P07477+P07478+P35030). The data set is described as follows: Binding affinity to human trypsin. The data set is classed as protein assay.
In data set [6] the target is Urokinase-type plasminogen activator (Homo sapiens, UniProt P00749). In words: Binding affinity to human urokinase.
In a further data set the target is Chymotrypsinogen B (Homo sapiens, UniProt P17538). In words: Binding affinity to human chymotrypsin.
Chymotrypsinogen B, sequence (P17538 34-164 limits assumed, other chains not shown): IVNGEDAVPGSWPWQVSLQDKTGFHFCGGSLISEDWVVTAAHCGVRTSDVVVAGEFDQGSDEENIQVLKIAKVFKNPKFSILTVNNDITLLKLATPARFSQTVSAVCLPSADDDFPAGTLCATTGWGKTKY
Chymotrypsinogen B, sequence (P17538 167-263 limits assumed, other chains not shown): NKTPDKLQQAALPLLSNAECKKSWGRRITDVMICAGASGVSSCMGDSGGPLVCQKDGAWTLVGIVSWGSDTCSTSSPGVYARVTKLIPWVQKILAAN
Another data set concerns the target Plasminogen (Homo sapiens, UniProt P00747). In words: Binding affinity to human plasmin.
Data set [7] in a line: Stability at pH 1.0. Format: physicochemical. The conditions noted are these: buffer.
Data set [8] in a line: Stability at pH 4.0. Format: physicochemical. The conditions noted are these: buffer.
Data set [9] addresses T2, Coagulation factor X. The data set is described as follows: Anticoagulant activity in human plasma measured as activated partial thromboplastin time. Format: functional, cell-free.
For data set [10], the target named is Coagulation factor VII/tissue factor (Homo sapiens) (UniProt P08709+P13726). The data set is described as follows: Anticoagulant activity in human plasma measured as prothrombin time. Format: functional, cell-free.

The source of these data is ChEMBL document CHEMBL1146891, “Preparation of 1-(3-aminobenzo[d]isoxazol-5-yl)-1H-pyrazolo[4,3-d]pyrimidin-7(6H)-ones as potent, selective, and efficacious inhibitors of coagulation factor Xa” (Bioorg Med Chem Lett, 2006).

Plasminogen, sequence (P00747 97-580 limits assumed): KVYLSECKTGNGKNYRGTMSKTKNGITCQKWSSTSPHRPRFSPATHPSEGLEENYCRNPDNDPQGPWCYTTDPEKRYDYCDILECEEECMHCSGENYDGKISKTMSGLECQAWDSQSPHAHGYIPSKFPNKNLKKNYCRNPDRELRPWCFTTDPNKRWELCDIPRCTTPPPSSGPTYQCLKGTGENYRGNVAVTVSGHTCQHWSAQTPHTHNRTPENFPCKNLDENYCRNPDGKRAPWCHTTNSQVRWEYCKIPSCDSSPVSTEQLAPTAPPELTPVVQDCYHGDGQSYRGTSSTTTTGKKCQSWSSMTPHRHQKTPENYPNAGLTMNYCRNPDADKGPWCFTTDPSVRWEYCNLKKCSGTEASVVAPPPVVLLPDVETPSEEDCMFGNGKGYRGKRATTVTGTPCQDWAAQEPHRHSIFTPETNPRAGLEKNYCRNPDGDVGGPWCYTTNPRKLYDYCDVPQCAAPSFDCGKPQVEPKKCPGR
Plasminogen, sequence (P00747 581-810 limits assumed): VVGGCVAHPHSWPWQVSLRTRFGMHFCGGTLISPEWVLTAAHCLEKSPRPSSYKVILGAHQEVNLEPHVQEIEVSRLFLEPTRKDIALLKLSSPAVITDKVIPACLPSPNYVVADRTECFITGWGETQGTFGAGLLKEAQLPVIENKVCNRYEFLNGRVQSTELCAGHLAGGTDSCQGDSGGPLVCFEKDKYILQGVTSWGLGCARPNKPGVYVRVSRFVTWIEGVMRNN
Vitamin K-dependent protein C, sequence (P04070 43-197 limits assumed): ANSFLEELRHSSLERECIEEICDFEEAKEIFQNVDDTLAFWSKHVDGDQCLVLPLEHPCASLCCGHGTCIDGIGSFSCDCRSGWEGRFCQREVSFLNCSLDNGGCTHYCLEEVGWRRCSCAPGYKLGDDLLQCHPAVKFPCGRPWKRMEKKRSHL
Vitamin K-dependent protein C, sequence (P04070 212-461 limits assumed): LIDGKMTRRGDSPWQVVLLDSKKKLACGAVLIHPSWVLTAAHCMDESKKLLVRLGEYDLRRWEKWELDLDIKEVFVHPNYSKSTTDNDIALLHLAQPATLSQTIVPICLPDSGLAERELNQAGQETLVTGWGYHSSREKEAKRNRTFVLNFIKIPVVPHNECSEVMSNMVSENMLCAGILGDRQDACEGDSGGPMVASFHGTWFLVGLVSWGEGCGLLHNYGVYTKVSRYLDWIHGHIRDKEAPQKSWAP
Coagulation factor IX, sequence (P00740 47-191 limits assumed): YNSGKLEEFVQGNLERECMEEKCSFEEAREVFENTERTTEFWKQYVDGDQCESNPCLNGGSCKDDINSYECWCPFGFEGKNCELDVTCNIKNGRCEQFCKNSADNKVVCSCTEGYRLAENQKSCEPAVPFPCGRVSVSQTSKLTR
Coagulation factor IX, sequence (P00740 227-461 limits assumed): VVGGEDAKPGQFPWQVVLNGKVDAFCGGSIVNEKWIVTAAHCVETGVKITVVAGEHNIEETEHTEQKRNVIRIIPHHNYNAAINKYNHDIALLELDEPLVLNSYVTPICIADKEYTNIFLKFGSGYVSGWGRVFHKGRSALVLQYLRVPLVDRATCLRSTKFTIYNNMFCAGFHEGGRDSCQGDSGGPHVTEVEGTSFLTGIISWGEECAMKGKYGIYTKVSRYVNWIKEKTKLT
Tissue-type plasminogen activator, sequence (P00750 whole entry): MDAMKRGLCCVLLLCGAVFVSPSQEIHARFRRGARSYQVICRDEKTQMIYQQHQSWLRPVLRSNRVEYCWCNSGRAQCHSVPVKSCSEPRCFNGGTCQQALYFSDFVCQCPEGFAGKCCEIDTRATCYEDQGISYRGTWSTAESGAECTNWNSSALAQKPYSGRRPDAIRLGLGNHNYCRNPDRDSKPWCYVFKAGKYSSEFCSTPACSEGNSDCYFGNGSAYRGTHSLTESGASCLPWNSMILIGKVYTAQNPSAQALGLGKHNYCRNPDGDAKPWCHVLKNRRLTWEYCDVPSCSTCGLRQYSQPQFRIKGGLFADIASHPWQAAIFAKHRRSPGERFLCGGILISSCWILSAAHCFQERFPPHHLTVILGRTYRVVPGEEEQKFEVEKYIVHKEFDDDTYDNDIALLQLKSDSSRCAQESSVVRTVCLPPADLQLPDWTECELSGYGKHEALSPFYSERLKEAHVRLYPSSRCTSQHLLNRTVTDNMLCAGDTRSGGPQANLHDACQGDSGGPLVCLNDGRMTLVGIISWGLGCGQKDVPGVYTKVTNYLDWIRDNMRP

For `Cc1nn(-c2ccc3onc(N)c3c2)c2c(=O)n(-c3ccc(-c4ccccc4CN4CC[C@@H](O)C4)cc3)c(C)nc12`, the inhibitory constant (Ki) in [1] was greater than 33000 nM; at Coagulation factor X [2], 0.59 nM; at Coagulation factor X [3], 0.37 nM; at Prothrombin it was 245 nM; at Coagulation factor IX it was greater than 41000 nM; in data set [5], greater than 76000 nM. Further, the Ki at Trypsin is greater than 4200 nM; in [6], greater than 13000 nM; at Chymotrypsinogen B it was 580 nM; at Plasminogen it was greater than 15000 nM. In addition, in data set [4], the fraction unbound is 0.09. In the data set with Oryctolagus cuniculus, this molecule displayed an ID50 of 2.4 µmol/kg/h.

With `Cc1nn(-c2ccc3onc(N)c3c2)c2c(=O)n(-c3ccc(-c4ccccc4CN(C)C)cc3)c(C)nc12`, the Ki in data set [1] is 23000 nM; at Coagulation factor X [2] it was 0.3 nM; at Coagulation factor X [3], 0.27 nM; at Prothrombin it was 305 nM; on Coagulation factor IX, greater than 41000 nM; in data set [5], 19000 nM. The Ki on Trypsin was greater than 4200 nM; in data set [6], greater than 13000 nM; on Chymotrypsinogen B, 960 nM; on Plasminogen, greater than 15000 nM. This molecule registered an ID50 with Oryctolagus cuniculus of 2 µmol/kg/h. The Stability in [7] turned out to be 89.7%; in data set [8], 94.7%.

As for `Cc1nn(-c2ccc3onc(N)c3c2)c2c(=O)n(-c3ccc(-c4ccccc4CN(C)C)cc3)cnc12`, the Ki at Coagulation factor X [3] was 0.53 nM. For the same molecule, the figures for the Stability in [7] and in data set [8] were 97.2% and 90.1%, respectively.

On to `Cc1nc2c(C(F)(F)F)nn(-c3ccc4onc(N)c4c3)c2c(=O)n1-c1ccc(-c2ccccc2CN(C)C)cc1`, for which the Ki in data set [1] was greater than 40000 nM; at Coagulation factor X [2], 0.2 nM; on Prothrombin it was 130 nM; on Coagulation factor IX, 37000 nM; in [5] it was greater than 37000 nM; on Trypsin it was greater than 4200 nM. Moreover, the results for the Ki (in [6]; at Chymotrypsinogen B; at Plasminogen) were greater than 40000 nM, greater than 11000 nM and greater than 25000 nM, respectively. For the same molecule, the fraction unbound in data set [4] was 0.03. The same molecule registered an ID50 in the data set on Oryctolagus cuniculus of 1.9 µmol/kg/h. In the data set on Oryctolagus cuniculus (Oryctolagus cuniculus), this molecule had an IC50 of 290 nM.

The molecule `CN(C)Cc1ccccc1-c1ccc(-n2cnc3c(C(F)(F)F)nn(-c4ccc5onc(N)c5c4)c3c2=O)cc1` yielded a Ki on Coagulation factor X [3] of 0.35 nM. For the same molecule, the Stability was 83.2% in data set [7] and 72.3% in [8]. In addition, the 2aPTT at Coagulation factor X [9] came out at 3.7 µM. The molecule also showed a 2PT in data set [10] of 2.6 µM.
